“Also recorded” adds a separate entry of the source.
Assays:
[1] = system: ABCB1 over-expressing Jurkat-DNR cells; assay: Chemoreversal assay: potentiation of daunorubicin (DNR) killing; type: cell-based; details: constant 100 nM DNR, varied inhibitor dose, read-out: CR50 ABCB1
Jurkat-DNR cells = assay: Direct cytotoxicity (Toxic Dose 50) without chemotherapeutic; details: Jurkat-DNR cells, inhibitor without chemotherapeutic
Experimental: Cells (ABCB1, Jurkat-DNR or ABCG2 Ig-MXP3) are incubated with the test compound (3 order of magnitude concentration range) over a 3-day and 7-day period in the presence of the inhibitor and chemotherapeutic (ABCB1, DNR or ABCG2 MTX), such that a cell concentration of at least 1×10^5 cells/mL is maintained. Cell viability is determined by trypan blue staining and enumeration under light microscopy. […] A chemoreversal index (Chemoreversal 50, CR50) is determined from the viability assessment. Using a similar approach, a direct cytotoxicity index (Toxic Dose 50, TD50) is determined by assessment of cell death of cells grown in media alone.
Cells (ABCB1, Jurkat-DNR or ABCG2 Ig-MXP3) were incubated with the test compound in a 3 order of magnitude concentration range over three and seven day periods in the presence of the inhibitor and chemotherapeutic (ABCB1, 100 nM DNR or ABCG2 30 nM MTX), such that a cell concentration of at least 1×10^5 cells mL^−1 was maintained. Cell viability was determined by trypan blue staining and enumeration under light microscopy. […] A chemoreversal index (Chemoreversal 50, CR50) was determined from the viability assessment. Using a similar approach, a direct cytotoxicity index (Toxic Dose 50, TD50) was determined by assessment of cell death of cells grown in media alone.

ABCB1 / ABCG2 = target: T1, ABCB1 / ABCG2 (Homo sapiens, UniProt Q9UNQ0); assay: JC-1 efflux inhibition dose response, flow cytometry, Ig-MXP3 cells; details: human, probe JC-1 (1 µM), ~Fold G2 Selective (B1/G2), quotient of average ABCB1 IC50 and average ABCG2 IC50, efflux assay
T1 sequence (Q9UNQ0 1-655): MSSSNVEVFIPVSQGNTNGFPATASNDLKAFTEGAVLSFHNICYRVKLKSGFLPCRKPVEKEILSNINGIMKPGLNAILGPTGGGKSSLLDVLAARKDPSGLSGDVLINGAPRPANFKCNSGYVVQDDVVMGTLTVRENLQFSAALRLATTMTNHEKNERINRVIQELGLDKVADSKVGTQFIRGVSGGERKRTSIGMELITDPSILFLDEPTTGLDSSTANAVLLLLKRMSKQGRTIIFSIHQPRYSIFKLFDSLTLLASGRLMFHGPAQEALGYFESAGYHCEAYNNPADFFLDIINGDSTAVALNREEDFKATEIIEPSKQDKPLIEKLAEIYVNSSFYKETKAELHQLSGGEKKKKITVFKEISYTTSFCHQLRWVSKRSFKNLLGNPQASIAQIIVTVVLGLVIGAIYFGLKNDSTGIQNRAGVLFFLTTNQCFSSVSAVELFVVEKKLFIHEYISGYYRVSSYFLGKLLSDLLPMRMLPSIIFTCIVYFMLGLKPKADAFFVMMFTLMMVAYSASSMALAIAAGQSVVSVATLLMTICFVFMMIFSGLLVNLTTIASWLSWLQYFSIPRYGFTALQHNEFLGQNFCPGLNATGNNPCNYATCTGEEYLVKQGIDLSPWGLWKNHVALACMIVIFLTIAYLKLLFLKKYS
Outline: (§1)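 Ig-MXP3 (ABCG2) and Jurkat-DNR (ABCB1) cells, run separately, are pre-stained with 1 μM JC-1 and added to compound in PBS; retained dye is read by high-throughput flow cytometry with time-gated analysis.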

ABCG2 = target: T2, ABCG2 (Homo sapiens, UniProt Q9UNQ0); assay: as above
T2 sequence (Q9UNQ0 1-655): T1 sequence (Q9UNQ0 1-655)
Outline: as §1

[2] = system: ABCG2 over-expressing Ig-MXP3 cells; assay: Chemoreversal assay: potentiation of mitoxantrone (MTX) killing; type: cell-based; details: Ig-MXP3 cells, constant 30 nM MTX, varied inhibitor dose; read-out: CR50 ABCG2
Ig-MXP3 cells = assay: Direct cytotoxicity (Toxic Dose 50) without chemotherapeutic; type: cell-based; details: Ig-MXP3 cells, inhibitor without chemotherapeutic
ABCB1 = ABCB1 (Homo sapiens, UniProt P08183); assay: JC-1 efflux inhibition dose response, flow cytometry, Jurkat-DNR cells; details: for IC50: IC50 ABCB1 (efflux inhibition of JC-1 substrate), Jurkat-DNR cells over-expressing ABCB1, averages of two to four replicates
Outline: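 Jurkat-DNR cells pre-stained with 1 μM JC-1 were incubated with compound (final 50 μM to 69 nM, […]) at 1×10^6 cells/mL, rotated 30 min at 25° C. Retained JC-1 read by flow cytometry (488 nm excitation, 530/40 nm emission). Curves fitted to a four-parameter logistic.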

[3] = system: ABCG2 over-expressing Igrov1/T8 tumors; assay: ABCG2 resistant Igrov1/T8 tumor xenograft, combination with topotecan; type: in vivo, CB-17 SCID mice
Experimental: Specific-pathogen-free adult CB-17 female SCID mice (5-6 weeks of age) weighing 20-25 g, are purchased. Briefly, ABCG2 over-expressing Igrov1/T8 cells are injected (5×10^6 cells/mouse). Prior to injection, Igrov1/T8 cells are maintained in topotecan in order to assure continuous expression of ABCG2. Tumors are allowed to grow for 3-4 weeks or until tumor volumes are greater than ˜100 cubic millimeters, at which time they are stratified into treatment groups. Treatment is administered and we observe the size of the tumor and weight of the mouse over a 7 day period. At the end of 7 days, we: 1) sacrifice the animal; 2) measure and weigh the tumor (if present); 3) analyze the histology of the tumor as well as other organs for evidence of toxicity; and 4) measure the expression of ABCG2 receptors on the tumor to determine if in vivo growth has altered ABCG2 expression. In our initial studies, we have generally observed high survival at 4 weeks (>90%) which escalates rapidly with near 100% mortality by 6 weeks. This approach is well described elsewhere.^9
Tumor-bearing mice were injected with either 150 nM TPT, 100 nM SID 88095709 (probe resupply), or 500 nM SID 85752814 (original SMR hit).
Igrov1/T8 cells were injected into the hind limbs of CB-17 SCID mice at a concentration of 1×10^7 cells in 200 μL, n of 3 per condition. The tumor was grown until the volume was in the range of 75 mm^3 to 250 mm^3. […] Injections were repeated daily and the size of the tumor was determined as a fraction of the starting size. After four days the mice were sacrificed and any recurring tumor was verified by light microscopy examination of histological sections. Mice were studied and maintained in accordance with guidelines of our Institutional Animal Research Committee at UNM HSC.

parental Igrov1 cells = assay: Topotecan killing of parental cells; type: cell-based; details: Homo sapiens, IGROV-1
[4] = system: resistant Igrov1/T8 cells; assay: Topotecan killing of resistant cells; type: cell-based; details: Homo sapiens, IGROV-1

Chain of ABCB1 (P08183 whole entry): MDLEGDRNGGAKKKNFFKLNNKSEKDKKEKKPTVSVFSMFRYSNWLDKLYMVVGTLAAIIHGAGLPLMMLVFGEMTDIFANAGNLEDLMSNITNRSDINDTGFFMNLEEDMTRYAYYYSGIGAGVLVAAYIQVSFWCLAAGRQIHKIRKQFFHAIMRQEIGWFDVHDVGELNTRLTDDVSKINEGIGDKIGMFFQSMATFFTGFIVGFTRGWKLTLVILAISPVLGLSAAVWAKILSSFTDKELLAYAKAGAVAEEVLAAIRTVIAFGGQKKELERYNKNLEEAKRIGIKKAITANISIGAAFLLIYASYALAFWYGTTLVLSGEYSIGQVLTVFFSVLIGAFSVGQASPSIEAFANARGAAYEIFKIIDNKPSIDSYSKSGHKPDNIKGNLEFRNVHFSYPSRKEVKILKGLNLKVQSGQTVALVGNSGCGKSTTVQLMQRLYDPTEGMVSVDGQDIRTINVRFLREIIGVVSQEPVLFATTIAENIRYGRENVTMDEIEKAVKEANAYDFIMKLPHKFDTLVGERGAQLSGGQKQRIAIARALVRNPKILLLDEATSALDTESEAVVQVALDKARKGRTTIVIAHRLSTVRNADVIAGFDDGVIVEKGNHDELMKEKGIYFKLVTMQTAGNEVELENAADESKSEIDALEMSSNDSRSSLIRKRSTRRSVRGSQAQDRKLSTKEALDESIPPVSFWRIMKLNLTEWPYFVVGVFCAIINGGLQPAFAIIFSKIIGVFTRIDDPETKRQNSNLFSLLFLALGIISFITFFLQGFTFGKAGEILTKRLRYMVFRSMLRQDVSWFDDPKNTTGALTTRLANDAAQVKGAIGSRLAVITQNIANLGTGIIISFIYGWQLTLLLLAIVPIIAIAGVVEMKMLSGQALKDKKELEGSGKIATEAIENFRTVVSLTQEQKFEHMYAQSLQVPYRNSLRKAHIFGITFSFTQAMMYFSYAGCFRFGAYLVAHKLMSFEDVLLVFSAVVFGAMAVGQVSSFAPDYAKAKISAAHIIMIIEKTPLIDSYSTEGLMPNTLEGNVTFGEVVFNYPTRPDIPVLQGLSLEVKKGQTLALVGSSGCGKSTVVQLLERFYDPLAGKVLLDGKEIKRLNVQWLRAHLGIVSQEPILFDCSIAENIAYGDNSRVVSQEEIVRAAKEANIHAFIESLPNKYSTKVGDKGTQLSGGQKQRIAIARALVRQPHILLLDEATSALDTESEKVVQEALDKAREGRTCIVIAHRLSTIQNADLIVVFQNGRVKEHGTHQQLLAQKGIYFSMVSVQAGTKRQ

Structure (SMILES)	EC50 [1] [nM]	TD50 ABCB1 (Jurkat-DNR cells) [µM]	selectivity ratio at 30 min (ABCB1 / ABCG2)	IC50 (ABCG2) [nM]	EC50 [2] [nM]	TD50 ABCG2 (Ig-MXP3 cells) [µM]	IC50 (ABCB1) [nM]	efflux inhibition activity ABCB1 (ABCB1; JC-1 efflux, Jurkat-DNR)	Tumor size reduced by ([3]; 100 nM topotecan + 100 nM compound intra-tumorally every 24 hours, 5 days (120 hours), n=5) [%]	tumor size, inhibitor alone ([3]; inhibitor alone (100 nM or 500 nM as printed), Example 3)	~Fold G2 Selective (B1/G2) (ABCG2; quotient of average ABCB1 IC50 and average ABCG2 IC50, efflux assay) [fold]	EC50 (parental Igrov1 cells) [nM]	EC50 [4] [nM]	tumor size, topotecan alone ([3]; 100 nM topotecan alone, Example 3)	tumor size, single agent ([3]; 150 nM TPT, 100 nM SID 88095709 or 500 nM SID 85752814 alone, listed as TPT)
COc1ccccc1-c1cc2nc(-c3ccccc3)cc(N3CCN(C(=O)c4ccoc4)CC3)n2n1 [Compound 34]	450	4.37	4.8	450 ± 170	490	6.50	2170 ± 760	–	–	–	–	–	–	–	–
COc1cccc(-c2cc3nc(-c4ccco4)cc(N4CCN(C(C)=O)CC4)n3n2)c1 [Compound 88]	320	49.30	0.9	1900	1180	>100	1640	–	–	–	–	–	–	–	–
O=C(Cc1ccccc1)N1CCN(c2cc(-c3ccccc3)nc3cc(-c4cccc(Cl)c4)nn23)CC1 [Compound 24]	510	17.80	0.8	5760 ± 3400	600	>100	4680 ± 2690	–	–	–	–	–	–	–	–
COc1cccc(-c2cc3nc(C)c(C)c(N4CCN(Cc5ccoc5)CC4)n3n2)c1 [SID 97301789]	–	> 100	233	–	–	> 100	–	abolished activity	55	No reduction in size	–	–	–	–	–
COc1cccc(C(=O)N2CCN(c3cc(-c4ccccc4)nc4cc(-c5cccc(Cl)c5)nn34)CC2)c1 [Compound 15]	350	>100	0.6	4450 ± 4680	210	>100	2640 ± 640	–	–	–	–	–	–	–	–
CC(=O)N1CCN(c2cc(-c3ccco3)nc3cc(-c4ccccc4)nn23)CC1 [Compound 74]	190	10.10	7	520	930	>100	3640	–	–	–	–	–	–	–	–
COc1ccc(-c2cc3nc(-c4ccco4)cc(N4CCN(C(=O)c5ccoc5)CC4)n3n2)cc1 [Compound 57]	5770	>100	3.9	890	760	>100	3450	–	–	–	–	–	–	–	–
COc1ccc(-c2cc3nc(-c4ccccc4)cc(N4CCN(C(=O)c5ccoc5)CC4)n3n2)cc1 [Compound 36]	230	5.54	1.2	1160 ± 660	380	>100	1440 ± 700	–	–	–	–	–	–	–	–
O=C(c1ccoc1)N1CCN(c2cc(-c3cccnc3)nc3cc(-c4cccc(Cl)c4)nn23)CC1 [Compound 30]	200	5.33	2.9	270 ± 120	20	5.77	770 ± 280	–	–	–	–	–	–	–	–
O=C(c1ccoc1)N1CCN(c2cc(-c3ccco3)nc3cc(-c4cccc(Cl)c4)nn23)CC1 [Compound 53]	530	8.53	2.5	2550	1380	10.80	6420	–	–	–	–	–	–	–	–
COc1cccc(-c2cc(N3CCN(C(=O)c4ccoc4)CC3)n3nc(-c4ccccc4)cc3n2)c1 [Compound 65]	180	5.77	83	200	680	67.80	16400	–	–	–	82.1	–	–	–	–
CC(=O)N1CCN(c2cc(-c3ccco3)nc3cc(-c4cccc(Cl)c4)nn23)CC1 [Compound 87]	80	17.60	1.4	560	580	>100	800	–	–	–	–	–	–	–	–
O=C(c1cccnc1)N1CCN(c2cc(-c3ccccc3)nc3cc(-c4cccc(Cl)c4)nn23)CC1 [Compound 20]	170	4.72	2.5	230 ± 150	130	10.30	570 ± 80	–	–	–	–	–	–	–	–
CC[C@@]1(O)C(=O)OCc2c1cc1n(c2=O)Cc2cc3c(CN(C)C)c(O)ccc3nc2-1 [Topotecan, reference compound]	–	–	–	–	–	–	–	–	–	–	–	7	311	No reduction in size	remained the same or increased; also recorded: did not affect the growth of tumors
